From ChEMBL document CHEMBL3098111, “Discovery of 2,5-diarylnicotinamides as selective orexin-2 receptor antagonists (2-SORAs)” (Bioorg Med Chem Lett, 2013)

Tests used:
[1] = target: GABA-A receptor; alpha-1/beta-3/gamma-2 (Homo sapiens) (UniProt P14867+P18507+P28472); test: Inhibition of human GABA alpha1beta3gamma2 receptor at 10 uM relative to control; format: protein-complex assay
[2] = target: Estrogen receptor beta (Homo sapiens) (UniProt Q92731); test: Inhibition of human ERbeta receptor at 10 uM relative to control
Chain of Estrogen receptor beta (Homo sapiens) (Q92731 whole entry): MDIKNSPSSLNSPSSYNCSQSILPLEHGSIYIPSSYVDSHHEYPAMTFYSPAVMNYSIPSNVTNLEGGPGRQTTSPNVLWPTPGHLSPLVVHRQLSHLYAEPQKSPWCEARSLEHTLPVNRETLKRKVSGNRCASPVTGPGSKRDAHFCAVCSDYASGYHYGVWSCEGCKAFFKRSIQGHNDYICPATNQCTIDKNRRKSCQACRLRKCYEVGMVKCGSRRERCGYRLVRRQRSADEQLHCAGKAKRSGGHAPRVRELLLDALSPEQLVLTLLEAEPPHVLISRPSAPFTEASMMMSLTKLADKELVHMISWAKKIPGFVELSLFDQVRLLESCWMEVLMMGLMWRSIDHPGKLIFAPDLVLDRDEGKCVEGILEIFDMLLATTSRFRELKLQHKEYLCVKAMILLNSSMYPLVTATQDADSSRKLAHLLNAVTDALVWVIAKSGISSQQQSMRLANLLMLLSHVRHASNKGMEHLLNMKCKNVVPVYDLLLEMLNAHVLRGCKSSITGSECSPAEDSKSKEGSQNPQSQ

[3] = target: Pro-epidermal growth factor (Homo sapiens) (UniProt P01133); test: Inhibition of human EGF at 10 uM relative to control
[4] = target: D(1B) dopamine receptor (Homo sapiens) (UniProt P21918); test: Inhibition of human dopamine D5 receptor at 10 uM relative to control
[5] = target: C-C chemokine receptor type 1 (Homo sapiens) (UniProt P32246); test: Inhibition of human CCR1 at 10 uM relative to control
[6] = target: Beta-3 adrenergic receptor (Homo sapiens) (UniProt P13945); test: Inhibition of human beta3 adrenergic receptor at 10 uM relative to control
[7] = target: Alpha-2B adrenergic receptor (Homo sapiens) (UniProt P18089); test: Inhibition of human alpha2B adrenergic receptor at 10 uM relative to control
Chain of Alpha-2B adrenergic receptor (Homo sapiens) (P18089 whole entry): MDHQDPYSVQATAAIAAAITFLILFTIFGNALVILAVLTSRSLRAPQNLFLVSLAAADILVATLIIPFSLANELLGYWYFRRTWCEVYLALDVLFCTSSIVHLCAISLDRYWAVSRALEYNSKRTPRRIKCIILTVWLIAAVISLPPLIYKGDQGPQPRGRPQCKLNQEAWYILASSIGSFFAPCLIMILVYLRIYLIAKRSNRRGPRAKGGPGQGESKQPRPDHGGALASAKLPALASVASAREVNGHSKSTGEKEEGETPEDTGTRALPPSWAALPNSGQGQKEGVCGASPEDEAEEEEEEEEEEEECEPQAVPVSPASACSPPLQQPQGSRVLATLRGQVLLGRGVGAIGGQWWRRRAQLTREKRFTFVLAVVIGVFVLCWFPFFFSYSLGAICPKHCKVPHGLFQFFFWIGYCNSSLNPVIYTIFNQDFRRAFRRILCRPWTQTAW

[8] = target: Receptor-type tyrosine-protein phosphatase C (Homo sapiens) (UniProt P08575); test: Inhibition of human CD45 at 10 uM relative to control
[9] = target: Tyrosine-protein phosphatase non-receptor type 1 (Homo sapiens) (UniProt P18031); test: Inhibition of human PTP1B at 10 uM relative to control
[10] = target: cGMP-specific 3',5'-cyclic phosphodiesterase (Homo sapiens) (UniProt O76074); test: Inhibition of human PDE5 at 100 uM relative to control
[11] = target: cGMP-dependent 3',5'-cyclic phosphodiesterase (Homo sapiens) (UniProt O00408); test: Inhibition of human PDE2 at 100 uM relative to control
[12] = target: Macrophage metalloelastase (Homo sapiens) (UniProt P39900); test: Inhibition of human MMP-12 at 10 uM relative to control
[13] = target: Endothelin-converting enzyme 1 (Homo sapiens) (UniProt P42892); test: Inhibition of human ECE-1 at 10 uM relative to control
Caspase-8 (Homo sapiens) = Caspase-8 (Homo sapiens) (UniProt Q14790); test: Inhibition of human caspase 8 at 10 uM relative to control
Chain of Caspase-8 (Homo sapiens) (Q14790 217-374 limits assumed): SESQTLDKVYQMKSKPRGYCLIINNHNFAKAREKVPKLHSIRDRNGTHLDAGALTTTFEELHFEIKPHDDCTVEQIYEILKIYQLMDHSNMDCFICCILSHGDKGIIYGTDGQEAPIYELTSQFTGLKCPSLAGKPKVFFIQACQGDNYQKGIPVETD
Chain of Caspase-8 (Homo sapiens) (Q14790 385-479 limits assumed): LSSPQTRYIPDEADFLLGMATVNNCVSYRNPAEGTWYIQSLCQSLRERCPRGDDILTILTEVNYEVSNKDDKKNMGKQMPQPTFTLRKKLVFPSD

Caspase-7 (Homo sapiens) = Caspase-7 (Homo sapiens) (UniProt P55210); test: Inhibition of human caspase 7 at 10 uM relative to control
Chain of Caspase-7 (Homo sapiens) (P55210 24-198 limits assumed): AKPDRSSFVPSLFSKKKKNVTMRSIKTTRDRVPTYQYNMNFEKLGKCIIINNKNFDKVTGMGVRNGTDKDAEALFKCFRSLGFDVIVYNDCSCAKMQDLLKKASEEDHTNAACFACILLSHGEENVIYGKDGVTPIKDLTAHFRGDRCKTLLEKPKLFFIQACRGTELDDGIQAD
Chain of Caspase-7 (Homo sapiens) (P55210 207-303 limits assumed): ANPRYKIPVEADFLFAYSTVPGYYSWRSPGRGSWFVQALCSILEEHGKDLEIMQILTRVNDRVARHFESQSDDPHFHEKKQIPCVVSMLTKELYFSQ

Caspase-1 (Homo sapiens) = Caspase-1 (Homo sapiens) (UniProt P29466); test: Inhibition of human caspase 1 at 10 uM relative to control
Chain of Caspase-1 (Homo sapiens) (P29466 120-297 limits assumed): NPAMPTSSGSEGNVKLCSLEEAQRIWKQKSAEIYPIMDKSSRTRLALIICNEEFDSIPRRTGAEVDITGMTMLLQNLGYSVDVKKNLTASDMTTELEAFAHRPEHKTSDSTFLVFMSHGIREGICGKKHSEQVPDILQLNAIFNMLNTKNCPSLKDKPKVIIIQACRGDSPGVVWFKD
Chain of Caspase-1 (Homo sapiens) (P29466 317-404 limits assumed): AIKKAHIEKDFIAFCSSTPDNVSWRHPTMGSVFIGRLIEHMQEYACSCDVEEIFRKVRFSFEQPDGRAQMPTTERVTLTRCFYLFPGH

[14] = target: Polyunsaturated fatty acid 5-lipoxygenase (Homo sapiens) (UniProt P09917); test: Inhibition of human 5-lipoxygenase at 10 uM relative to control
Chain of Polyunsaturated fatty acid 5-lipoxygenase (Homo sapiens) (P09917 whole entry): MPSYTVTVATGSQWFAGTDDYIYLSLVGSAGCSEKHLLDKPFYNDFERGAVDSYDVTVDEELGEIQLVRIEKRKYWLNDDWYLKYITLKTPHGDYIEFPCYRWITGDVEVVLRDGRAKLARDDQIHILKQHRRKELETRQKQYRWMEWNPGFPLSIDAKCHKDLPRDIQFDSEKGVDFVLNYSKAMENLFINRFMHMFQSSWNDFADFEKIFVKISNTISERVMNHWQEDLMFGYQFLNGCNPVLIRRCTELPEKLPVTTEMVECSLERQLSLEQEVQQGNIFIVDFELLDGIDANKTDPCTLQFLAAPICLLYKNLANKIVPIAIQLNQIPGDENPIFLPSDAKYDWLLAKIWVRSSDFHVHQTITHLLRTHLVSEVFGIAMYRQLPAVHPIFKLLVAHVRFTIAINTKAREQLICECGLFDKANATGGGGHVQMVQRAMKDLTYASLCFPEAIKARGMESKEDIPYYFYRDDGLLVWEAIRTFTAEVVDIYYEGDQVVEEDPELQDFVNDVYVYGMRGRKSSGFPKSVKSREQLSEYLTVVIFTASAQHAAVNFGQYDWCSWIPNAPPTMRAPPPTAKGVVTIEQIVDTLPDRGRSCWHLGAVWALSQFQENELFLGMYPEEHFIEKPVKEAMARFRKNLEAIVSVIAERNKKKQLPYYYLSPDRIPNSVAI

[15] = target: Polyunsaturated fatty acid lipoxygenase ALOX12 (Homo sapiens) (UniProt P18054); test: Inhibition of human 12-lipoxygenase at 10 uM relative to control
Mu-type opioid receptor [16] = target: T1, Mu-type opioid receptor (Homo sapiens, UniProt P35372); test: Inhibition of human mu opioid receptor at 10 uM relative to control
T1 sequence (P35372 whole entry): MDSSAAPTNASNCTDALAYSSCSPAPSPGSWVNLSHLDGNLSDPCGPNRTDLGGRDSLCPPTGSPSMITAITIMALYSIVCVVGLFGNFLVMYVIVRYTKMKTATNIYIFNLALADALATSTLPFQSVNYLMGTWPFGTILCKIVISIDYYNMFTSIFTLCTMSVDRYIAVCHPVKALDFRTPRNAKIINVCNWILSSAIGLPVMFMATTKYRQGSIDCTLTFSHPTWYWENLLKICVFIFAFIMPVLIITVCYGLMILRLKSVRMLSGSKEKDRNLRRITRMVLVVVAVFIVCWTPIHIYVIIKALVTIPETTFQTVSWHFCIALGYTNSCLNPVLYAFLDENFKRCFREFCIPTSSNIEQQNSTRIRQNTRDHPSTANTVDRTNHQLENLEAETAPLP

Cavia porcellus [17] = species: Cavia porcellus; test: Inhibition of guinea pig adenosine transporter at 10 uM relative to control
[18] = target: Vasopressin V1a receptor (Homo sapiens) (UniProt P37288); test: Inhibition of human V1A receptor at 10 uM relative to control
Chain of Vasopressin V1a receptor (Homo sapiens) (P37288 whole entry, looked up): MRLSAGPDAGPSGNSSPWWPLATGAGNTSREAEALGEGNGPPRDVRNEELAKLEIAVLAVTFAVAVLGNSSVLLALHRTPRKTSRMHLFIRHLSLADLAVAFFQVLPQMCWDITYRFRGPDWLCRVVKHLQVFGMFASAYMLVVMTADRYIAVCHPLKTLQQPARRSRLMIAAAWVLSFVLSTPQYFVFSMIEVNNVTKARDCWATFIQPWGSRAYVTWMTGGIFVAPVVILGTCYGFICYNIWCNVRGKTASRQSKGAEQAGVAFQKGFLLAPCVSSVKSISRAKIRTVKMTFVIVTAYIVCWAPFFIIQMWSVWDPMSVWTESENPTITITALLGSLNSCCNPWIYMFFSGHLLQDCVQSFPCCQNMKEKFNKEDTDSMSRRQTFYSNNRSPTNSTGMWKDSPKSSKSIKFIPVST

Oryctolagus cuniculus [19] = species: Oryctolagus cuniculus; test: Inhibition of rabbit monoamine transporter at 0.1 uM relative to control
Oryctolagus cuniculus [20] = species: Oryctolagus cuniculus; test: Inhibition of rabbit monoamine transporter at 1 uM relative to control
Rattus norvegicus [21] = species: Rattus norvegicus; test: Inhibition of rat choline transporter at 10 uM relative to control
Cavia porcellus [22] = species: Cavia porcellus; test: Inhibition of guinea pig adenosine transporter at 10 nM relative to control
Cavia porcellus [23] = species: Cavia porcellus; test: Inhibition of guinea pig adenosine transporter at 0.1 uM relative to control
[24] = target: Substance-K receptor (Homo sapiens) (UniProt P21452); test: Inhibition of human NK2 receptor at 10 uM relative to control
[25] = target: Neuromedin-K receptor (Homo sapiens) (UniProt P29371); test: Inhibition of human NK3 receptor at 10 uM relative to control
Chain of Neuromedin-K receptor (Homo sapiens) (P29371 whole entry): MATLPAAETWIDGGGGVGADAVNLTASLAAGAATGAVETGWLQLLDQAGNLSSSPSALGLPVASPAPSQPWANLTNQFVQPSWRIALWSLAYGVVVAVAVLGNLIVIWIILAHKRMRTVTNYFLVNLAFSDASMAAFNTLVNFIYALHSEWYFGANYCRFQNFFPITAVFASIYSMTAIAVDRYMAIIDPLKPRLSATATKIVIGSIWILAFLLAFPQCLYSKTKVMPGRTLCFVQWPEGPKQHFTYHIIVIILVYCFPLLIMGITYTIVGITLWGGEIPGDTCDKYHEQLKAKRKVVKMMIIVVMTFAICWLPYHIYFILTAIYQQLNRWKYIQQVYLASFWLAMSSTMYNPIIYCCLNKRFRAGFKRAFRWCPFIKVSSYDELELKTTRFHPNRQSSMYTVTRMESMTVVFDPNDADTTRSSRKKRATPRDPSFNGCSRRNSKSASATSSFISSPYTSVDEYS

[26] = target: Somatostatin receptor type 4 (Homo sapiens) (UniProt P31391); test: Inhibition of human SST4 receptor at 10 uM relative to control
Chain of Somatostatin receptor type 4 (Homo sapiens) (P31391 whole entry): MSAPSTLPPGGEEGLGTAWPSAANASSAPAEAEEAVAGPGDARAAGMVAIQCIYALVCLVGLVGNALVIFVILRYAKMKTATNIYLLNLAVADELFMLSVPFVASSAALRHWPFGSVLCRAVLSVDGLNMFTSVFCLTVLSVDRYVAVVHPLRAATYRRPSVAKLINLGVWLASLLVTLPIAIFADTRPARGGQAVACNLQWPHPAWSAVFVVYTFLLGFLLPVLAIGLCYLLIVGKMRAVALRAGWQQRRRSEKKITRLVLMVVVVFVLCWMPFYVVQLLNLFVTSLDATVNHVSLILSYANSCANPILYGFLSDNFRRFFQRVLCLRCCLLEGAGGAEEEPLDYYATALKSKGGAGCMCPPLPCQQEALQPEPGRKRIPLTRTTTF

[27] = target: 5-hydroxytryptamine receptor 4 (Cavia porcellus) (UniProt O70528); test: Inhibition of guinea pig 5-HT4 receptor at 10 uM relative to control
[28] = target: Prostaglandin E2 receptor EP4 subtype (Homo sapiens) (UniProt P35408); test: Inhibition of human prostanoid EP4 receptor at 10 uM relative to control
[29] = target: Prostaglandin D2 receptor (Homo sapiens) (UniProt Q13258); test: Inhibition of human prostanoid DP receptor at 10 uM relative to control
[30] = target: Peroxisome proliferator-activated receptor gamma (Homo sapiens) (UniProt P37231); test: Inhibition of human PPARgamma at 10 uM relative to control
[31] = target: Peroxisome proliferator-activated receptor alpha (Homo sapiens) (UniProt Q07869); test: Inhibition of human PPARalpha at 10 uM relative to control
Mu-type opioid receptor [32] = target: T1, Mu-type opioid receptor; test: Inhibition of human mu opioid receptor at 10 nM relative to control
Mu-type opioid receptor [33] = target: T1, Mu-type opioid receptor; test: Inhibition of human mu opioid receptor at 0.1 uM relative to control
[34] = target: Neuropeptide Y receptor type 1 (Homo sapiens) (UniProt P25929); test: Inhibition of human neuropeptide YY1 receptor at 10 uM relative to control
[35] = target: Muscarinic acetylcholine receptor M4 (Homo sapiens) (UniProt P08173); test: Inhibition of human muscarinic M4 receptor at 10 uM relative to control
[36] = target: Muscarinic acetylcholine receptor M1 (Homo sapiens) (UniProt P11229); test: Inhibition of human muscarinic M1 receptor at 10 uM relative to control
[37] = target: Melanocortin receptor 5 (Homo sapiens) (UniProt P33032); test: Inhibition of human MC5 receptor at 10 uM relative to control
Chain of Melanocortin receptor 5 (Homo sapiens) (P33032 whole entry): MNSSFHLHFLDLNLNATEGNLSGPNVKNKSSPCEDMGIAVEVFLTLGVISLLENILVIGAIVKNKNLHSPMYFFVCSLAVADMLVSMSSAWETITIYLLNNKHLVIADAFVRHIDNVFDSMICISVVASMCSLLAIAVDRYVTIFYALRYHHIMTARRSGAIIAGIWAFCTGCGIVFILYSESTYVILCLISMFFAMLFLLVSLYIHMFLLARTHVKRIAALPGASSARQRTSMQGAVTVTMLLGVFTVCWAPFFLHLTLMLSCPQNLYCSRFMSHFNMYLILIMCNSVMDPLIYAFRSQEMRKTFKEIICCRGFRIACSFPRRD

[38] = target: Melanocortin receptor 3 (Homo sapiens) (UniProt P41968); test: Inhibition of human MC3 receptor at 10 uM relative to control
[39] = target: Histamine H4 receptor (Homo sapiens) (UniProt Q9H3N8); test: Inhibition of human histamine H4 receptor at 10 uM relative to control
[40] = target: Galanin receptor type 2 (Homo sapiens) (UniProt O43603); test: Inhibition of human GAL2 receptor at 10 uM relative to control
Chain of Galanin receptor type 2 (Homo sapiens) (O43603 whole entry): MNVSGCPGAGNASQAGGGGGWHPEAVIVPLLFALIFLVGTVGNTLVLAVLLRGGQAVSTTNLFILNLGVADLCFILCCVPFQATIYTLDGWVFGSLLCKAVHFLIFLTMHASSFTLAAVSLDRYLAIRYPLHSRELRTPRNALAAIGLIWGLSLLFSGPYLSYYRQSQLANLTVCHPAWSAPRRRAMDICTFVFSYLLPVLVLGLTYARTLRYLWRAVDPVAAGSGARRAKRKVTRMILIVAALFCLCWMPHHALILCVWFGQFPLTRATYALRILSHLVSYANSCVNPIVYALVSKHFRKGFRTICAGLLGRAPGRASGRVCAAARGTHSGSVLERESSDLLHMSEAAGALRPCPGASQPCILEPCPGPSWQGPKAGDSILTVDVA

Rattus norvegicus [41] = species: Rattus norvegicus; test: Inhibition of rat GABAB receptor at 10 uM relative to control
[42] = target: T2, GABA-A receptor; alpha-5/beta-3/gamma-2 (Homo sapiens) (UniProt P18507+P28472+P31644); test: Inhibition of human GABA alpha5beta3gamma2 receptor muscimol binding site at 10 uM relative to control; format: protein-complex assay
[43] = target: T2, GABA-A receptor; alpha-5/beta-3/gamma-2 (Homo sapiens); test: Inhibition of human GABA alpha5beta3gamma2 receptor at 10 uM relative to control; format: protein-complex assay

- inhibition [1]: 21%
- inhibition [2]: -7%
- inhibition [3]: 7%
- inhibition [4]: 3%
- inhibition [5]: 21%
- inhibition [6]: 24%
- inhibition [7]: 34%
- inhibition [8]: -1%
- inhibition [9]: 1%
- inhibition [10]: -8%
- inhibition [11]: 4%
- inhibition [12]: -6%
- inhibition [13]: -10%
- inhibition (Caspase-8 (Homo sapiens)): -1%
- inhibition (Caspase-7 (Homo sapiens)): 1%
- inhibition (Caspase-1 (Homo sapiens)): 4%
- inhibition [14]: 44%
- inhibition [15]: 11%
- inhibition (Mu-type opioid receptor [16]): 62%
- inhibition (Cavia porcellus [17]): 69%
- inhibition [18]: 0%
- inhibition (Oryctolagus cuniculus [19]): 7%
- inhibition (Oryctolagus cuniculus [20]): 20%
- inhibition (Rattus norvegicus [21]): 1%
- inhibition (Cavia porcellus [22]): 2%
- inhibition (Cavia porcellus [23]): 15%
- inhibition [24]: 25%
- inhibition [25]: 13%
- inhibition [26]: 5%
- inhibition [27]: 22%
- inhibition [28]: 19%
- inhibition [29]: 16%
- inhibition [30]: 3%
- inhibition [31]: 5%
- inhibition (Mu-type opioid receptor [32]): -3%
- inhibition (Mu-type opioid receptor [33]): -3%
- inhibition [34]: 23%
- inhibition [35]: 7%
- inhibition [36]: 0%
- inhibition [37]: 9%
- inhibition [38]: 2%
- inhibition [39]: 9%
- inhibition [40]: 6%
- inhibition (Rattus norvegicus [41]): 0%
- inhibition [42]: 14%
- inhibition [43]: 18%
Compound: COc1ccc(CNC(=O)c2cc(-c3cc(Cl)cc(Cl)c3)cnc2-c2cccnc2)cc1OC
